Assay results from publication PMC7037682, “Herb–Drug Interaction of Red Ginseng Extract and Ginsenoside Rc with Valsartan in Rats” (Molecules, 2020).
Like-named read-outs stand apart in the source and are kept apart here.

Experiments:
OAT1 = molecular target: T1, OAT1 (Homo sapiens, UniProt Q4U2R8); experiment: Inhibition of OAT1-mediated [3H]PAH uptake in HEK293-OAT1 cells
T1 sequence (Q4U2R8 1-563): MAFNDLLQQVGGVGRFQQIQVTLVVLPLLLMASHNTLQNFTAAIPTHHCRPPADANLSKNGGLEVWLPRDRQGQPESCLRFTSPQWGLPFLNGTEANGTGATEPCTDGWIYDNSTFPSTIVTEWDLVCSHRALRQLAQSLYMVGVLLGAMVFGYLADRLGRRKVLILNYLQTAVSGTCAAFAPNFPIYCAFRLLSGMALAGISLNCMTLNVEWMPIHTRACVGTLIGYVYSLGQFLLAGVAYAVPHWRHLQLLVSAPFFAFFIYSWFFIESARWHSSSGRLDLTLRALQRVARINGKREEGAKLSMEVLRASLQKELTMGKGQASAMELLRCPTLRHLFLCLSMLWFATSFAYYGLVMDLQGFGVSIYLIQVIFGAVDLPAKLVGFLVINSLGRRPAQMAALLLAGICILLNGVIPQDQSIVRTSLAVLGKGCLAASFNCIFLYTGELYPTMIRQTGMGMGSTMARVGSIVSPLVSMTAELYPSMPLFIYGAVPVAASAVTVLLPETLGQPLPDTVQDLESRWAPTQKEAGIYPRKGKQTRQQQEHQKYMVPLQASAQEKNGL
Protocol: (§1) HEK293 cells overexpressing the OCT1, OCT2, OAT1, OAT3, OATP1B1, and OATP1B3 transporters (HEK293-OCT1, -OCT2, -OAT1, -OAT3, -OATP1B1, and -OATP1B3, respectively) and HEK293-mock cells (Corning Life Sciences; Woburn, MA, USA) were used and characterized as previously described.
(§2) HEK293 cells overexpressing drug transporters and HEK293-mock cells were seeded in poly-D-lysine-coated 96-well plates at a density of 10^5 cells/well and were cultured in DMEM supplemented with 10% FBS, 5 mM non-essential amino acids, and 2 mM sodium butyrate in a humidified atmosphere with 8% CO2 at 37 °C.
(§3) Then the uptake of probe substrates into HEK293-mock cells and HEK293-OCT1, -OCT2, -OAT1, -OAT3, -OATP1B1, and -OATP1B3 cells in the presence and absence of typical inhibitor or each ginsenoside with previously described concentration range was measured for 5 min. Immediately after placing the plates on ice, the cells were washed three times with 100 μL of ice-cold HBSS, followed by lysing with 50 μL of 10% SDS solution and mixing with 150 μL of Optiphase cocktail solution (Perkin Elmer Inc., Boston, MA, USA). The radioactivity of the probe substrates in the cells was determined using a liquid scintillation counter.
(§4) In the inhibition studies, the uptake rate of substrate by HEK293 cells overexpressing the respective transporters was used as the control (100%) and the uptake rate of substrates in the presence of typical inhibitors or ginsenosides expressed as a percentage of the control. The inhibition data were fitted to an inhibitory effect model using Sigma plot (version 10.0; Systat Software Inc., San Jose, CA, USA). IC50 value indicated the half-maximal inhibitory concentration of the inhibitor.

OAT3 = molecular target: T2, OAT3 (Homo sapiens, UniProt Q8TCC7); experiment: Inhibition of OAT3-mediated [3H]ES uptake in HEK293-OAT3 cells
T2 sequence (Q8TCC7 1-542): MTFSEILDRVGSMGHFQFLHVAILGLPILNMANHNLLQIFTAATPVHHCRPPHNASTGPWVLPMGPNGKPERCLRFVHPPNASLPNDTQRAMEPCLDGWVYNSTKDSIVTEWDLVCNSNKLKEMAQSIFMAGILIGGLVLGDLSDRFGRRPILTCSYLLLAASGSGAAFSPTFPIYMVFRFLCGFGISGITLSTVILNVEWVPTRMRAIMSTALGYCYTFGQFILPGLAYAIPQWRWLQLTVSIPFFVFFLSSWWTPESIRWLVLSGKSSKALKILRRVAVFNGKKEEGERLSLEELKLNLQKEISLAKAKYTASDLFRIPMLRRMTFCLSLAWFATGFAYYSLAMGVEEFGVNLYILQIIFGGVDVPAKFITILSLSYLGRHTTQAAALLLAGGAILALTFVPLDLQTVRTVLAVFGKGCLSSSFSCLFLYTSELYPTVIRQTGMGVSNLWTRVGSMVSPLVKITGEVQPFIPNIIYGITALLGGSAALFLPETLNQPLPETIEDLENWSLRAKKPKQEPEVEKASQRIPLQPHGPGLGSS
Protocol: as §1, §2
as §3, with “To examine the effects of ginsenosides and typical inhibitors on transporter activity, aliquots (100 μL) of HBSS containing the probe substrate and ginsenosides or typical inhibitors were added to the cells after aspirating pre-incubated HBSS. The concentrations and probe substrates were as follows: 0.1 μM [^3H]MPP^+ for OCT1 and OCT2, 0.1 μM [^3H]PAH for OAT1, 0.1 μM [^3H]ES for OAT3 and OATP1B1, and 0.1 μM [^3H]EG for OATP1B3. […] Then” for “Then”
as §4

OCT1 = molecular target: T3, OCT1 (Homo sapiens, UniProt O15245); experiment: Inhibition of OCT1-mediated [3H]MPP+ uptake in HEK293-OCT1 cells
T3 sequence (O15245 1-554): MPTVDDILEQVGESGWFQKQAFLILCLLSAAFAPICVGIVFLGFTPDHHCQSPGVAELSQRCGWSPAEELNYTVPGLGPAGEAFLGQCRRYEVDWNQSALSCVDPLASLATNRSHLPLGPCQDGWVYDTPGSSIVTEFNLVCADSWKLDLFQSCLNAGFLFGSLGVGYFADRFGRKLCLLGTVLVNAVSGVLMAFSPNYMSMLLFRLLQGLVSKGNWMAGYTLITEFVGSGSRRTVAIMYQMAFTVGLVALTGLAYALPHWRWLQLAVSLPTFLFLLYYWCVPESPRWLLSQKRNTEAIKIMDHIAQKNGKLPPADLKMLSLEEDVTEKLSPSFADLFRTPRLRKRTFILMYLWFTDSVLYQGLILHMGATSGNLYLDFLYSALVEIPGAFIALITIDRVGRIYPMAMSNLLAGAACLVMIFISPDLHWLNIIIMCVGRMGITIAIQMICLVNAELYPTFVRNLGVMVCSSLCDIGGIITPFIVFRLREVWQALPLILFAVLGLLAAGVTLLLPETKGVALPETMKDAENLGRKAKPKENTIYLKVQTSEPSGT
Protocol: as §1, §2
as §3, with “To examine the effects of ginsenosides and typical inhibitors on transporter activity, aliquots (100 μL) of HBSS containing the probe substrate and ginsenosides or typical inhibitors were added to the cells after aspirating pre-incubated HBSS. The concentrations and probe substrates were as follows: 0.1 μM [^3H]MPP^+ for OCT1 and OCT2, 0.1 μM [^3H]PAH for OAT1, 0.1 μM [^3H]ES for OAT3 and OATP1B1, and 0.1 μM [^3H]EG for OATP1B3. […] Then” for “Then”
as §4

[1] = read-out: IC50 OAT1, HEK293-OAT1, 0.1 μM [3H]PAH uptake, 5 min
[2] = read-out: IC50 OAT3, HEK293-OAT3, 0.1 μM [3H]ES uptake, 5 min
[3] = read-out: IC50 OCT1, HEK293-OCT1, 0.1 μM [3H]MPP+ uptake, 5 min

Measured: IC50

CC(C)=CCCC(C)(O)[C@H]1CC[C@]2(C)[C@@H]1[C@H](O)C[C@@H]1[C@@]3(C)CC[C@H](O)C(C)(C)[C@@H]3CC[C@]12C (stereo in doubt) [PPD, protopanaxadiol]
> 100 µM: OAT1; [1] | OAT3; [2] | OCT1; [3]

CC(C)=CCC[C@](C)(O[C@@H]1O[C@H](CO)[C@@H](O)[C@H](O)[C@H]1O)[C@H]1CC[C@]2(C)[C@@H]1[C@H](O)C[C@@H]1[C@@]3(C)CC[C@H](O)C(C)(C)[C@@H]3CC[C@]12C [Compound K, compound K]
> 100 µM: OAT1; [1] | OAT3; [2] | OCT1; [3]

CC(C)=CCC[C@](C)(O)[C@H]1CC[C@]2(C)[C@@H]1[C@H](O)C[C@@H]1[C@@]3(C)CC[C@H](O)C(C)(C)[C@@H]3[C@@H](O)C[C@]12C [PPT, protopanaxatriol]
> 100 µM: OAT1; [1] | OAT3; [2] | OCT1; [3]

CC(C)=CCC[C@](C)(O[C@@H]1O[C@H](CO[C@@H]2O[C@H](CO)[C@@H](O)[C@H](O)[C@H]2O)[C@@H](O)[C@H](O)[C@H]1O)[C@H]1CC[C@]2(C)[C@@H]1[C@H](O)C[C@@H]1[C@@]3(C)CC[C@H](O[C@@H]4O[C@H](CO)[C@@H](O)[C@H](O)[C@H]4O[C@@H]4O[C@H](CO)[C@@H](O)[C@H](O)[C@H]4O)C(C)(C)[C@@H]3CC[C@]12C [Rb1, ginsenoside Rb1]
> 100 µM: OAT1 | OAT3 | OCT1

CC(C)=CCC[C@](C)(O[C@@H]1O[C@H](CO[C@@H]2OC[C@H](O)[C@H](O)[C@H]2O)[C@@H](O)[C@H](O)[C@H]1O)[C@H]1CC[C@]2(C)[C@@H]1[C@H](O)C[C@@H]1[C@@]3(C)CC[C@H](O[C@@H]4O[C@H](CO)[C@@H](O)[C@H](O)[C@H]4O[C@@H]4O[C@H](CO)[C@@H](O)[C@H](O)[C@H]4O)C(C)(C)[C@@H]3CC[C@]12C [Rb2, ginsenoside Rb2]
> 100 µM: OAT1 | OAT3 | OCT1

CC(C)=CCC[C@](C)(O[C@@H]1O[C@H](CO[C@@H]2O[C@@H](CO)[C@H](O)[C@H]2O)[C@@H](O)[C@H](O)[C@H]1O)[C@H]1CC[C@]2(C)[C@@H]1[C@H](O)C[C@@H]1[C@@]3(C)CC[C@H](O[C@@H]4O[C@H](CO)[C@@H](O)[C@H](O)[C@H]4O[C@@H]4O[C@H](CO)[C@@H](O)[C@H](O)[C@H]4O)C(C)(C)[C@@H]3CC[C@]12C [Rc, ginsenoside Rc]
> 100 µM: OAT1 | OAT3 | OCT1

CC(C)=CCC[C@](C)(O[C@@H]1O[C@H](CO)[C@@H](O)[C@H](O)[C@H]1O)[C@H]1CC[C@]2(C)[C@@H]1[C@H](O)C[C@@H]1[C@@]3(C)CC[C@H](O[C@@H]4O[C@H](CO)[C@@H](O)[C@H](O)[C@H]4O[C@@H]4O[C@H](CO)[C@@H](O)[C@H](O)[C@H]4O)C(C)(C)[C@@H]3CC[C@]12C [Rd, ginsenoside Rd]
> 100 µM: OAT1 | OAT3 | OCT1

CC(C)=CCC[C@](C)(O[C@@H]1O[C@H](CO)[C@@H](O)[C@H](O)[C@H]1O)[C@H]1CC[C@]2(C)[C@@H]1[C@H](O)C[C@@H]1[C@@]3(C)CC[C@H](O)C(C)(C)[C@@H]3[C@@H](O[C@@H]3O[C@H](CO)[C@@H](O)[C@H](O)[C@H]3O[C@@H]3O[C@@H](C)[C@H](O)[C@@H](O)[C@H]3O)C[C@]12C [Re, ginsenoside Re]
> 100 µM: OAT1 | OAT3 | OCT1

CC(C)=CCC[C@](C)(O[C@@H]1O[C@H](CO)[C@@H](O)[C@H](O)[C@H]1O)[C@H]1CC[C@]2(C)[C@@H]1[C@H](O)C[C@@H]1[C@@]3(C)CC[C@H](O)C(C)(C)[C@@H]3[C@@H](O[C@@H]3O[C@H](CO)[C@@H](O)[C@H](O)[C@H]3O)C[C@]12C [Rg1, ginsenoside Rg1]
> 100 µM: OAT1 | OAT3 | OCT1

CC(C)=CCC[C@](C)(O)[C@H]1CC[C@]2(C)[C@@H]1[C@H](O)C[C@@H]1[C@@]3(C)CC[C@H](O[C@@H]4O[C@H](CO)[C@@H](O)[C@H](O)[C@H]4O[C@@H]4O[C@H](CO)[C@@H](O)[C@H](O)[C@H]4O)C(C)(C)[C@@H]3CC[C@]12C [Rg3, ginsenoside Rg3]
> 100 µM: OAT1; [1] | OAT3; [2] | OCT1; [3]

CC(C)=CCC[C@](C)(O)[C@H]1CC[C@]2(C)[C@@H]1[C@H](O)C[C@@H]1[C@@]3(C)CC[C@H](O)C(C)(C)[C@@H]3[C@@H](O[C@@H]3O[C@H](CO)[C@@H](O)[C@H](O)[C@H]3O)C[C@]12C [Rh1, ginsenoside Rh1]
> 100 µM: OAT1 | OAT3 | OCT1

CC(C)=CCC[C@](C)(O)[C@H]1CC[C@]2(C)[C@@H]1[C@H](O)C[C@@H]1[C@@]3(C)CC[C@H](O[C@@H]4O[C@H](CO)[C@@H](O)[C@H](O)[C@H]4O)C(C)(C)[C@@H]3CC[C@]12C [Rh2, ginsenoside Rh2]
> 100 µM: OAT1 | OAT3 | OCT1
